In article PMC5218480 (PLoS ONE, 2017):

System: MV-4-11 cells
Experiment: Gene expression microarray analysis (Affymetrix PrimeView) and GSEA
Format: cell-based, human
Design: RFU PODN (11730768_x_at) / Fold change /veh PODN (11730768_x_at) / RFU LINC00158 (11744669_a_at) / Fold change /veh LINC00158 (11744669_a_at) / RFU DUSP10 (11751237_a_at) / Fold change /veh DUSP10 (11751237_a_at) / RFU ID3 (11757404_x_at) / Fold change /veh ID3 (11757404_x_at) / RFU PLEKHG5 (11737974_s_at) / Fold change /veh PLEKHG5 (11737974_s_at) / RFU LRRC4B (11730491_at) / Fold change /veh LRRC4B (11730491_at) / RFU GIMAP4 (11747438_a_at) / Fold change /veh GIMAP4 (11747438_a_at) / RFU KRT8 (11758183_x_at) / Fold change /veh KRT8 (11758183_x_at) / RFU CNN1 (11734310_a_at) / Fold change /veh CNN1 (11734310_a_at) / RFU VPS37D (11726825_at) / Fold change /veh VPS37D (11726825_at) / RFU C10orf10 (11716522_x_at) / Fold change /veh C10orf10 (11716522_x_at) / RFU KIR2DL2 /// KIR2DL4 /// KIR2DL5A /// KIR2DL5B /// KIR2DS1 /// KIR2DS2 /// KIR2DS3 /// KIR2DS4 /// KIR3DL3 /// KIR3DL3 /// KIR3DS1 (11738374_at) / Fold change /veh KIR2DL2 /// KIR2DL4 /// KIR2DL5A /// KIR2DL5B /// KIR2DS1 /// KIR2DS2 /// KIR2DS3 /// KIR2DS4 /// KIR3DL3 /// KIR3DL3 /// KIR3DS1 (11738374_at) / RFU C1QL1 (11718748_at) / Fold change /veh C1QL1 (11718748_at) / RFU TMPRSS4 (11747572_a_at) / Fold change /veh TMPRSS4 (11747572_a_at) / RFU HAMP (11756126_x_at) / Fold change /veh HAMP (11756126_x_at) / RFU RNFT2 (11725882_a_at) / Fold change /veh RNFT2 (11725882_a_at) / RFU NR4A2 (11747474_a_at) / Fold change /veh NR4A2 (11747474_a_at) / RFU ABCC12 (11746883_a_at) / Fold change /veh ABCC12 (11746883_a_at) / RFU TMEM136 (11760407_x_at) / Fold change /veh TMEM136 (11760407_x_at) / RFU CLDN22 /// WWC2 (11732394_at) / Fold change /veh CLDN22 /// WWC2 (11732394_at) / RFU HLA-DPB1 (11760878_x_at) / Fold change /veh HLA-DPB1 (11760878_x_at) / RFU SPINT1 (11716480_a_at) / Fold change /veh SPINT1 (11716480_a_at) / RFU GAP43 (11754022_s_at) / Fold change /veh GAP43 (11754022_s_at) / RFU A4GNT (11735810_at) / Fold change /veh A4GNT (11735810_at) / RFU PRB3 (11715151_x_at) / Fold change /veh PRB3 (11715151_x_at) / RFU TUBB4B (11761932_at) / Fold change /veh TUBB4B (11761932_at) / RFU CAPN14 (11732068_a_at) / Fold change /veh CAPN14 (11732068_a_at) / RFU TMCC2 (11721928_a_at) / Fold change /veh TMCC2 (11721928_a_at) / RFU IRGQ (11745062_a_at) / Fold change /veh IRGQ (11745062_a_at) / RFU FAM174B (11720279_a_at) / Fold change /veh FAM174B (11720279_a_at) / RFU TMPRSS4 (11748680_a_at) / Fold change /veh TMPRSS4 (11748680_a_at) / RFU FAM212B (11763350_a_at) / Fold change /veh FAM212B (11763350_a_at) / RFU PLEKHG5 (11743358_a_at) / Fold change /veh PLEKHG5 (11743358_a_at) / RFU ZSCAN30 (11745921_a_at) / Fold change /veh ZSCAN30 (11745921_a_at) / RFU CMKLR1 (11741424_a_at) / Fold change /veh CMKLR1 (11741424_a_at) / RFU LOC101060620 /// MAPK8IP1 (11723275_at) / Fold change /veh LOC101060620 /// MAPK8IP1 (11723275_at) / RFU SPTSSB (11747773_x_at) / Fold change /veh SPTSSB (11747773_x_at) / RFU PRSS12 (11739890_at) / Fold change /veh PRSS12 (11739890_at) / RFU BIN1 (11741810_x_at) / Fold change /veh BIN1 (11741810_x_at) / RFU WNT11 (11732464_a_at) / Fold change /veh WNT11 (11732464_a_at) / RFU C10orf10 (11716521_a_at) / Fold change /veh C10orf10 (11716521_a_at) / RFU C5orf56 (11738089_at) / Fold change /veh C5orf56 (11738089_at) / RFU CYB561 (11721691_x_at) / Fold change /veh CYB561 (11721691_x_at) / RFU ANKRD19P (11752326_a_at) / Fold change /veh ANKRD19P (11752326_a_at) / RFU OR2T12 /// OR2T33 /// OR2T8 (11738714_s_at) / Fold change /veh OR2T12 /// OR2T33 /// OR2T8 (11738714_s_at) / RFU VCAN (11748164_a_at) / Fold change /veh VCAN (11748164_a_at) / RFU JSRP1 (11732532_at) / Fold change /veh JSRP1 (11732532_at) / RFU KRTAP10-11 (11738290_x_at) / Fold change /veh KRTAP10-11 (11738290_x_at) / RFU MYO3A (11730013_a_at) / Fold change /veh MYO3A (11730013_a_at) / RFU EBF3 (11725865_a_at) / Fold change /veh EBF3 (11725865_a_at) / RFU CAMK2N1 (11719241_x_at) / Fold change /veh CAMK2N1 (11719241_x_at) / RFU C5orf56 (11738088_a_at) / Fold change /veh C5orf56 (11738088_a_at) / RFU OLFML3 (11715873_a_at) / Fold change /veh OLFML3 (11715873_a_at) / RFU LOC100653217 /// NTM (11731650_a_at) / Fold change /veh LOC100653217 /// NTM (11731650_a_at) / RFU MAPK11 (11762145_a_at) / Fold change /veh MAPK11 (11762145_a_at) / RFU FIZ1 (11724087_x_at) / Fold change /veh FIZ1 (11724087_x_at) / RFU OASL (11726364_x_at) / Fold change /veh OASL (11726364_x_at) / RFU SOX15 (11748057_x_at) / Fold change /veh SOX15 (11748057_x_at) / RFU CD79A (11719716_a_at) / Fold change /veh CD79A (11719716_a_at) / RFU HIST1H1D (11736915_at) / Fold change /veh HIST1H1D (11736915_at) / RFU CASKIN2 (11723855_a_at) / Fold change /veh CASKIN2 (11723855_a_at) / RFU LOC730098 (11760151_x_at) / Fold change /veh LOC730098 (11760151_x_at) / RFU OR4N2 (11742367_at) / Fold change /veh OR4N2 (11742367_at) / RFU PRRT2 (11749266_a_at) / Fold change /veh PRRT2 (11749266_a_at) / RFU SNX32 (11753110_a_at) / Fold change /veh SNX32 (11753110_a_at) / RFU CDHR5 (11726645_a_at) / Fold change /veh CDHR5 (11726645_a_at) / RFU RCAN1 (11760418_a_at) / Fold change /veh RCAN1 (11760418_a_at) / RFU FAM167A (11723789_a_at) / Fold change /veh FAM167A (11723789_a_at) / RFU FAM26E (11764081_at) / Fold change /veh FAM26E (11764081_at) / RFU ISYNA1 (11749810_s_at) / Fold change /veh ISYNA1 (11749810_s_at) / RFU ACY1 (11761880_at) / Fold change /veh ACY1 (11761880_at) / RFU 11764098_at / Fold change /veh 11764098_at / RFU SAMD14 (11745864_x_at) / Fold change /veh SAMD14 (11745864_x_at) / RFU NPB (11741838_a_at) / Fold change /veh NPB (11741838_a_at) / RFU TMPRSS6 (11731388_a_at) / Fold change /veh TMPRSS6 (11731388_a_at) / RFU KRTAP10-2 (11738614_at) / Fold change /veh KRTAP10-2 (11738614_at) / RFU ARHGAP8 /// PRR5-ARHGAP8 (11727945_x_at) / Fold change /veh ARHGAP8 /// PRR5-ARHGAP8 (11727945_x_at) / RFU KRTAP5-7 /// NADSYN1 (11734609_at) / Fold change /veh KRTAP5-7 /// NADSYN1 (11734609_at) / RFU RASL12 (11751679_a_at) / Fold change /veh RASL12 (11751679_a_at) / RFU CDKN2B (11736163_a_at) / Fold change /veh CDKN2B (11736163_a_at) / RFU PRF1 (11729649_at) / Fold change /veh PRF1 (11729649_at) / RFU, ZNF638 /// ZNF638-IT1 / Fold change vs veh, ZNF638 /// ZNF638-IT1 / RFU, PANK3 / Fold change vs veh, PANK3 / RFU, SH3YL1 / Fold change vs veh, SH3YL1 / RFU, ZEB2 / Fold change vs veh, ZEB2 / RFU, NRIP1 / Fold change vs veh, NRIP1 / RFU, PTTG1IP / Fold change vs veh, PTTG1IP / RFU, CAPN2 / Fold change vs veh, CAPN2 / RFU, MED14 / Fold change vs veh, MED14 / RFU, SNORA58 / Fold change vs veh, SNORA58 / RFU, C1orf63 / Fold change vs veh, C1orf63 / RFU, LRRFIP1 / Fold change vs veh, LRRFIP1 / RFU, NDUFAF7 / Fold change vs veh, NDUFAF7 / RFU, SLC12A2 / Fold change vs veh, SLC12A2 / RFU, IBTK / Fold change vs veh, IBTK / RFU, ESF1 / Fold change vs veh, ESF1 / Fold change vs veh, TMEM50B / RFU, TAOK1 / Fold change vs veh, TAOK1 / RFU, ACBD3 / Fold change vs veh, ACBD3 / RFU, TMA16 / Fold change vs veh, TMA16 / RFU, RWDD3 / Fold change vs veh, RWDD3 / RFU, BCAT1 / Fold change vs veh, BCAT1 / RFU, EDEM3 / Fold change vs veh, EDEM3 / RFU, TMEM33 / Fold change vs veh, TMEM33 / RFU, WDR75 / Fold change vs veh, WDR75 / RFU, AHCTF1 / Fold change vs veh, AHCTF1 / RFU, TFRC / Fold change vs veh, TFRC / RFU, ZDHHC17 / Fold change vs veh, ZDHHC17 / RFU, NOM1 / Fold change vs veh, NOM1 / RFU, ARL8B / Fold change vs veh, ARL8B / RFU, ZBTB11 / Fold change vs veh, ZBTB11 / RFU, TAMM41 / Fold change vs veh, TAMM41 / RFU, KIAA1704 /// LOC100996395 / Fold change vs veh, KIAA1704 /// LOC100996395 / RFU, ING1 / Fold change vs veh, ING1 / RFU, TRMT61B / Fold change vs veh, TRMT61B / RFU, FUBP3 / Fold change vs veh, FUBP3 / RFU, TP53 / Fold change vs veh, TP53 / RFU, TNKS2 / Fold change vs veh, TNKS2 / RFU, ZFP14 / Fold change vs veh, ZFP14 / RFU, ACTR2 / Fold change vs veh, ACTR2 / RFU, PPP3R1 / Fold change vs veh, PPP3R1 / RFU, PIK3R1 / Fold change vs veh, PIK3R1 / RFU, HNRNPA1 / Fold change vs veh, HNRNPA1 / RFU, RNF170 / Fold change vs veh, RNF170 / RFU, ZNF28 / Fold change vs veh, ZNF28 / RFU, RNGTT / Fold change vs veh, RNGTT / RFU, OGT / Fold change vs veh, OGT / RFU, BRD1 / Fold change vs veh, BRD1 / RFU, MARS / Fold change vs veh, MARS / RFU, ZNF655 / Fold change vs veh, ZNF655 / RFU, FAHD1 / Fold change vs veh, FAHD1 / RFU, BDP1 / Fold change vs veh, BDP1 / RFU, LRRCC1 / Fold change vs veh, LRRCC1 / RFU, ARID1A / Fold change vs veh, ARID1A / RFU, ZNF146 / Fold change vs veh, ZNF146 / RFU, ZNF330 / Fold change vs veh, ZNF330 / RFU, GPN3 / Fold change vs veh, GPN3 / RFU, C9orf123 / Fold change vs veh, C9orf123 / RFU, N4BP2L2 / Fold change vs veh, N4BP2L2 / RFU, ARFIP1 / Fold change vs veh, ARFIP1 / RFU, FAM179B / Fold change vs veh, FAM179B / RFU, BCL10 / Fold change vs veh, BCL10 / RFU, UHRF1BP1L / Fold change vs veh, UHRF1BP1L / RFU, BET1 / Fold change vs veh, BET1 / RFU, CNOT2 / Fold change vs veh, CNOT2 / RFU, ZNF268 / Fold change vs veh, ZNF268 / Fold change vs veh, ZNF507 / RFU, DGCR2 / Fold change vs veh, DGCR2 / RFU, WDSUB1 / Fold change vs veh, WDSUB1 / Fold change vs veh, HSP90B1 /// MIR3652 / RFU, ADSS / Fold change vs veh, ADSS / RFU, GK / Fold change vs veh, GK / RFU, ZNF148 / Fold change vs veh, ZNF148 / RFU, TAF9 / Fold change vs veh, TAF9 / RFU, SLC1A5 / Fold change vs veh, SLC1A5 / RFU, SLMO2 / Fold change vs veh, SLMO2 / RFU, ABCC4 / Fold change vs veh, ABCC4 / RFU, LOC101060439 /// RAP1B / Fold change vs veh, LOC101060439 /// RAP1B / RFU, RFX7 / Fold change vs veh, RFX7 / RFU, GTPBP10 / Fold change vs veh, GTPBP10 / RFU, CNEP1R1 / Fold change vs veh, CNEP1R1 / RFU, BIVM-ERCC5 /// ERCC5 / Fold change vs veh, BIVM-ERCC5 /// ERCC5 / RFU, ILF3 / Fold change vs veh, ILF3 / RFU 11762660_at / Fold change /veh 11762660_at / RFU VCAN (11757783_s_at) / Fold change /veh VCAN (11757783_s_at) / RFU DDX43 (11728927_at) / Fold change /veh DDX43 (11728927_at) / RFU KRT8 (11758188_x_at) / Fold change /veh KRT8 (11758188_x_at) / RFU NKD1 (11759106_at) / Fold change /veh NKD1 (11759106_at) / RFU SRD5A1 (11742802_a_at) / Fold change /veh SRD5A1 (11742802_a_at) / RFU TPSAB1 /// TPSB2 (11721975_s_at) / Fold change /veh TPSAB1 /// TPSB2 (11721975_s_at) / RFU GSTM3 (11746129_a_at) / Fold change /veh GSTM3 (11746129_a_at) / RFU IL23R (11737362_x_at) / Fold change /veh IL23R (11737362_x_at) / RFU TMEM51 (11727254_a_at) / Fold change /veh TMEM51 (11727254_a_at) / RFU PIWIL2 (11732686_x_at) / Fold change /veh PIWIL2 (11732686_x_at) / RFU ORM1 (11744905_x_at) / Fold change /veh ORM1 (11744905_x_at) / RFU CCDC152 (11743942_at) / Fold change /veh CCDC152 (11743942_at) / RFU ECM1 (11717891_a_at) / Fold change /veh ECM1 (11717891_a_at) / RFU IL23R (11748794_a_at) / Fold change /veh IL23R (11748794_a_at) / RFU TNFAIP8L3 (11732012_x_at) / Fold change /veh TNFAIP8L3 (11732012_x_at) / RFU MBOAT4 (11741988_at) / Fold change /veh MBOAT4 (11741988_at) / RFU 11764193_at / Fold change /veh 11764193_at / RFU TMEM53 (11763286_at) / Fold change /veh TMEM53 (11763286_at) / RFU MAGEB2 (11727129_at) / Fold change /veh MAGEB2 (11727129_at) / RFU TMEM200A (11744735_a_at) / Fold change /veh TMEM200A (11744735_a_at) / RFU CCDC152 (11751479_a_at) / Fold change /veh CCDC152 (11751479_a_at) / RFU FAM211A (11726209_a_at) / Fold change /veh FAM211A (11726209_a_at) / RFU RGS16 (11746705_a_at) / Fold change /veh RGS16 (11746705_a_at) / RFU VCAN (11755009_s_at) / Fold change /veh VCAN (11755009_s_at) / RFU RHOB (11743442_s_at) / Fold change /veh RHOB (11743442_s_at) / RFU RGS16 (11720943_a_at) / Fold change /veh RGS16 (11720943_a_at) / RFU RGS16 (11720944_at) / Fold change /veh RGS16 (11720944_at) / RFU, VPS4B / Fold change vs veh, VPS4B / RFU, CREB1 / Fold change vs veh, CREB1 / RFU, DNAJC13 / Fold change vs veh, DNAJC13 / RFU, GNAQ / Fold change vs veh, GNAQ / RFU, CDK5R1 / Fold change vs veh, CDK5R1 / RFU, ZRANB3 / Fold change vs veh, ZRANB3 / RFU, CUL4A / Fold change vs veh, CUL4A / RFU, CCNY / Fold change vs veh, CCNY / RFU, UFL1 / Fold change vs veh, UFL1 / RFU, COG3 / Fold change vs veh, COG3 / RFU, DIAPH2 / Fold change vs veh, DIAPH2 / RFU, SKA2 / Fold change vs veh, SKA2 / RFU, AFF3 / Fold change vs veh, AFF3 / RFU, LMF1 / Fold change vs veh, LMF1 / RFU, IPO11 / Fold change vs veh, IPO11 / RFU, DFFB / Fold change vs veh, DFFB / RFU, FOXP1 / Fold change vs veh, FOXP1 / RFU, CARD8 / Fold change vs veh, CARD8 / RFU, STRN3 / Fold change vs veh, STRN3 / RFU, ADK / Fold change vs veh, ADK / RFU, RASSF2 / Fold change vs veh, RASSF2 / RFU, WIPF1 / Fold change vs veh, WIPF1 / RFU, LARP1B / Fold change vs veh, LARP1B / RFU, RASA1 / Fold change vs veh, RASA1 / RFU, RB1 / Fold change vs veh, RB1 / RFU, PPFIA1 / Fold change vs veh, PPFIA1 / RFU, MAT2A / Fold change vs veh, MAT2A / RFU, CCT5 / Fold change vs veh, CCT5 / RFU, WDR92 / Fold change vs veh, WDR92 / RFU, CUX1 / Fold change vs veh, CUX1 / RFU, TTC7A / Fold change vs veh, TTC7A / RFU, TMEM135 / Fold change vs veh, TMEM135 / RFU, DEPTOR / Fold change vs veh, DEPTOR / RFU, CPM / Fold change vs veh, CPM / RFU, DNAJB6 / Fold change vs veh, DNAJB6 / RFU, CACNA2D3 / Fold change vs veh, CACNA2D3 / RFU, DTX4 / Fold change vs veh, DTX4 / RFU, TFCP2 / Fold change vs veh, TFCP2 / RFU, GMCL1 /// GMCL1P1 / Fold change vs veh, GMCL1 /// GMCL1P1 / RFU, AEBP2 / Fold change vs veh, AEBP2 / RFU, SNHG1 /// SNORD22 /// SNORD25 /// SNORD26 /// SNORD27 /// SNORD28 /// SNORD29 /// SNORD31 / Fold change vs veh, SNHG1 /// SNORD22 /// SNORD25 /// SNORD26 /// SNORD27 /// SNORD28 /// SNORD29 /// SNORD31 / Fold change (Aza/veh), C12orf56 (ProbeSet 11735607_a_at) / Fold change (ACY-1035/veh), C12orf56 (ProbeSet 11735607_a_at) / Fold change (Aza/veh), FGFR1OP (ProbeSet 11751329_s_at) / Fold change (ACY-1035/veh), FGFR1OP (ProbeSet 11751329_s_at) / Fold change (Aza/veh), VPS36 (ProbeSet 11739960_a_at) / Fold change (ACY-1035/veh), VPS36 (ProbeSet 11739960_a_at) / RFU SYPL1 (11715823_x_at) / Fold change /veh SYPL1 (11715823_x_at) / RFU IGFBP7 (11715501_s_at) / Fold change /veh IGFBP7 (11715501_s_at) / RFU REEP3 (11722064_at) / Fold change /veh REEP3 (11722064_at) / RFU IGLL1 (11728026_x_at) / Fold change /veh IGLL1 (11728026_x_at): dose or concentration left out as unconfirmed
Details: ProbeSet 11716891_at; LIST B

Nc1ncn([C@@H]2O[C@H](CO)[C@@H](O)[C@H]2O)c(=O)n1 [azacitidine]
Fold change vs veh, C9orf123: 1.12
